Values quoted from earlier work as cited in patent US11648207B1, “Extended release pharmaceutical composition of Clozapine” (priority 2021, dated 2023).

Legend:
[1] = in vivo

CN1CCN(C2=Nc3cc(Cl)ccc3Nc3ccccc32)CC1 [Clozapine, 8-chloro-11-(4-methyl-1-piperazinyl)-5H-dibenzo[b,e][1,4]diazepine]
mean terminal half-life [1]: 12 h
solubility in water: very slightly soluble in water
